In brackets after ≈: the same amount, converted by molar mass.
Key:
Assay type in all cases: physicochemical
[1] = Titration experiments with 0.01 N hydrochloric acid (acid burden, precipitation)
Experimental: It was possible to show in titration experiments that an acid burden of 0.01 N hydrochloric acid in solutions without trometamol leads to such a large fall in pH even on addition of less than 1 ml to the total content of a 50 ml infusion bottle that the active ingredient precipitates. On addition of 0.001 M trometamol buffer, precipitations are to be observed on addition of about 5 ml of 0.01 N hydrochloric acid. A solution with a trometamol content of 0.01 M is by contrast stable to precipitations on addition of acid up to more than 35 ml of 0.01 N hydrochloric acid.

[2] = Dilution of 0.05 mg/ml compound 1 / 0.01 M trometamol solutions with standard infusion solutions (Table 3); details: trometamol 0.01 M
Experimental: Solutions comprising compound 1 in a concentration of 0.05 mg/ml and trometamol in a concentration of 0.01 M can be diluted problem-free with standard infusion solutions over a wide range. The dilution experiments shown in Table 3 were carried out concerning this:
All the dilution experiments were carried out in duplicate. […] It emerged that there is a marked decrease in the pH values to the region below 8.0 only with dilutions greater than 1:40. Precipitation of the active ingredient is no longer a worry with such great dilutions, because the solubility limit of compound 1 is no longer reached owing to the large amount of dilution medium.

[3] = Dilution experiments on 0.05 mg/ml solutions with and without trometamol (Table 2); details: for Appearance of the solution: 0.05 mg/ml solution with trometamol 0.01 molar, pH before dilution 8.74
Experimental: Dilution experiments on solutions with an active ingredient content of 0.05 mg/ml have shown that these can be diluted in a pH-stable and thus problem-free manner over a wide range only if they are buffered with a sufficient quantity of trometamol.
Without use of trometamol and on use of trometamol in a concentration of only 0.001 M, the pH falls greatly even with slight dilution (1+5). There is a high risk in this case that the active ingredient will precipitate on dilution with other infusion solutions (Table 2 a-c).

[4] = pKa of the ionizable groups of compound 1
Source text: (§1) However, there are limits to increasing the pH due to the use as infusion. Values of pH above pH 9.0 are borderline in relation to physiological tolerability.

[5] = Saturation solubility of compound 1 in various buffer media; details: aqueous buffer, thermodynamic from solid
Source text: as §1

O=C(O)CCCCN(CCc1ccccc1OCc1ccc(CCc2ccccc2)cc1)Cc1ccc(C(=O)O)cc1 [compound 1, 4-[((4-Carboxybutyl)-{2-[(4-phenethylbenzyl)oxy]phenethyl}amino)methyl]benzoic acid]
Volume of 0.01 N hydrochloric acid at which precipitations are observed ([1]; solution with 0.001 M trometamol buffer, 50 ml infusion bottle): about 5 ml
Volume of 0.01 N hydrochloric acid up to which the solution is stable to precipitations ([1]; solution with trometamol content of 0.01 M, 50 ml infusion bottle): more than 35 ml
Volume of 0.01 N hydrochloric acid at which the active ingredient precipitates ([1]; solution without trometamol, added to total content of a 50 ml infusion bottle): less than 1 ml
Precipitation on dilution ([2]; all dilutions of Table 3, in duplicate): No precipitations occurred
pH after dilution ([2]; mixing ratio 1:2, NaCl soln, final volume 10 ml): 8.67
pH after dilution ([2]; mixing ratio 1:4, NaCl soln, final volume 20 ml): 8.65
pH after dilution ([2]; mixing ratio 1:10, Glucose soln, final volume 50 ml): 8.37
pH after dilution ([2]; mixing ratio 1:10, NaCl soln, final volume 50 ml): 8.57
pH after dilution ([2]; mixing ratio 1:10, Placebo soln, final volume 50 ml): 8.72
pH after dilution ([2]; mixing ratio 1:10, Water, final volume 50 ml): 8.61
pH after dilution ([2]; mixing ratio 1:20, NaCl soln, final volume 100 ml): 8.54
pH after dilution ([2]; mixing ratio 1:40, NaCl soln, final volume 200 ml): 8.40
pH after dilution ([2]; mixing ratio 1:200, NaCl soln, final volume 1000 ml): 7.85
pH after dilution ([3]; 0.05 mg/ml solution with trometamol 0.001 molar, mixing ratio 1 + 5, NaCl soln, final volume 251 ml, pH before dilution 8.69): 8.43
pH after dilution ([3]; 0.05 mg/ml solution with trometamol 0.001 molar, mixing ratio 1 + 10, NaCl soln, final volume 275 ml, pH before dilution 8.69): 8.05
pH after dilution ([3]; 0.05 mg/ml solution with trometamol 0.001 molar, mixing ratio 1 + 250, NaCl soln, final volume 300 ml, pH before dilution 8.69): 6.61
Appearance of the solution ([3]; mixing ratio 1 + 5, NaCl soln, final volume 251 ml): clear
Appearance of the solution ([3]; mixing ratio 1 + 10, NaCl soln, final volume 275 ml): clear
Appearance of the solution ([3]; mixing ratio 1 + 250, NaCl soln, final volume 300 ml): clear
pH after dilution ([3]; 0.05 mg/ml solution without trometamol, mixing ratio 1 + 5, NaCl soln, final volume 251 ml, pH before dilution 8.51): 6.40
pH after dilution ([3]; 0.05 mg/ml solution without trometamol, mixing ratio 1 + 10, NaCl soln, final volume 275 ml, pH before dilution 8.51): 6.58
pH after dilution ([3]; 0.05 mg/ml solution without trometamol, mixing ratio 1 + 250, NaCl soln, final volume 300 ml, pH before dilution 8.51): 6.70
pKa1 [4]: 4.0
pKa2 [4]: 4.7
pKa3 [4]: 8.3
solubility ([5]; Ammonium chloride buffer solution, actual pH 9.5): 75700 µg/mL (≈ 134000 µM)
solubility ([5]; Citric acid-phosphate buffer, actual pH 7.4): 13.1 µg/mL (≈ 23.2 µM)
solubility ([5]; Citric acid-phosphate buffer, actual pH 8.0): 64.2 µg/mL (≈ 113 µM)
solubility ([5]; Diethanolamine buffer solution, actual pH 10.0): 89800 µg/mL (≈ 159000 µM)
solubility ([5]; HEPES buffer solution, actual pH 7.5): 35.8 µg/mL (≈ 63.3 µM)
solubility ([5]; Phosphate buffer solution (0.2 M), actual pH 7.5): 15.8 µg/mL (≈ 27.9 µM)
solubility ([5]; Phosphate buffer solution (0.3 M), actual pH 7.5): 1.3 µg/mL (≈ 2.3 µM)
solubility ([5]; Phosphate buffer solution, actual pH 6.0): 0.2 µg/mL (≈ 0.354 µM)
solubility ([5]; Phosphate buffer solution, actual pH 7.2): 8.4 µg/mL (≈ 14.8 µM)
solubility ([5]; Phosphate buffer solution, actual pH 7.4): 21.5 µg/mL (≈ 38 µM)
solubility ([5]; Phosphate buffer solution, actual pH 8.0): 3.2 µg/mL (≈ 5.66 µM)
solubility ([5]; Phosphate buffer solution, actual pH 9.0): 683 µg/mL (≈ 1210 µM)
solubility ([5]; Saline-phosphate buffer, actual pH 7.4): 19 µg/mL (≈ 33.6 µM)
solubility ([5]; Sodium citrate buffer solution, actual pH 7.8): 160 µg/mL (≈ 283 µM)
solubility ([5]; Tetrabutylammonium buffer solution, actual pH 7.0): 12.8 µg/mL (≈ 22.6 µM)

Reference: patent US20100069493A1, “AQUEOUS PHARMACEUTICAL FORMULATION OF 4-[((4-CARBOXYBUTYL)-AMINO)METHYL]BENZOIC ACID” (BAYER HEALTHCARE AG, priority 2006, published 2010)
